Laboratory results reported in patent US20090281136A1, “PRASUGREL PHARMACEUTICAL FORMULATIONS” (priority 2008, published 2009).

Assay: Drug-excipient compatibility study (impurity formation on storage at 40° C. and 75% relative humidity)
Assay type: physicochemical
Protocol: Prasugrel hydrochloride and mixtures with excipients in the weight ratios stated below are mixed well and sifted through an ASTM #40 mesh sieve. The mixture is placed into open glass vials, stored at 40° C. and 75% relative humidity for four weeks, and samples are analyzed at intervals to evaluate the extent of impurity formation. Values for impurities in the table below are calculated as percent by weight of the original prasugrel content.

Stability in the presence of the excipients studied (accelerated stability testing conditions): acceptable stability
SMILES: CC(=O)Oc1cc2c(s1)CCN(C(C(=O)C1CC1)c1ccccc1F)C2 (stereo not drawn) [Prasugrel, 5-[2-cyclopropyl-1-(2-fluorophenyl)-2-oxoethyl]-4,5,6,7-tetrahydrothieno[3,2-c]pyridin-2-yl acetate]
Total Impurities, 1 Week (1 week at 40° C. and 75% relative humidity, open glass vials): 0.6547 percent by weight of the original prasugrel content | Total Impurities, 2 Weeks (2 weeks at 40° C. and 75% relative humidity, open glass vials): 0.6982 percent by weight of the original prasugrel content | Total Impurities, 3 Weeks (3 weeks at 40° C. and 75% relative humidity, open glass vials): 0.7488 percent by weight of the original prasugrel content | Total Impurities, 4 Weeks (4 weeks at 40° C. and 75% relative humidity, open glass vials): 0.8998 percent by weight of the original prasugrel content | Total Impurities, Initial (Initial, open glass vials): 0.6301 percent by weight of the original prasugrel content
